Assays:
[1] = biological target: T1, Protein kinase C zeta type (Homo sapiens) (UniProt Q05513); experiment: Inhibition of human full length PKC zeta expressed in baculovirus assessed as substrate phosphorylation using fluorescence-labelled peptides as substrate at 95 uM after 90 mins by microfluidic peptide phosphorylation assay
T1 sequence (whole entry): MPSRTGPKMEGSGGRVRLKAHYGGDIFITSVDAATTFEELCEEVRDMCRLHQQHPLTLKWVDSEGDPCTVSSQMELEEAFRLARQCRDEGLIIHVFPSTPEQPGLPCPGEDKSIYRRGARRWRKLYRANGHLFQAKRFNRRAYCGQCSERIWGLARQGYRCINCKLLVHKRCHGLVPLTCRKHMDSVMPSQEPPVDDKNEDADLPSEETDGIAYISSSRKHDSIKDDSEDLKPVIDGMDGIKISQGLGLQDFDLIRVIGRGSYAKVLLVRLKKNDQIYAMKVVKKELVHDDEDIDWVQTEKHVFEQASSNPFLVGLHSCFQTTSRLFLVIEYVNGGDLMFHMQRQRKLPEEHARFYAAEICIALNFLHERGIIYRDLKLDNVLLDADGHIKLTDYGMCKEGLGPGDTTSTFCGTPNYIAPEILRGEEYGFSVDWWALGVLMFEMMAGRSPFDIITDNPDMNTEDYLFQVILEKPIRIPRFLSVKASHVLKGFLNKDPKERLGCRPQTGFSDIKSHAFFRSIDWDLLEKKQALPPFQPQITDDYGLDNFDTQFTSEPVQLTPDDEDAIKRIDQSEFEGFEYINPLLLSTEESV

[2] = biological target: Mitogen-activated protein kinase kinase kinase kinase 4 (Homo sapiens) (UniProt O95819); experiment: Inhibition of human HGK catalytic domain expressed in baculovirus assessed as substrate phosphorylation using fluorescence-labelled peptides as substrate at 95 uM after 90 mins by microfluidic peptide phosphorylation assay
Chain of Mitogen-activated protein kinase kinase kinase kinase 4 (Homo sapiens) (O95819 2-1239 limits assumed): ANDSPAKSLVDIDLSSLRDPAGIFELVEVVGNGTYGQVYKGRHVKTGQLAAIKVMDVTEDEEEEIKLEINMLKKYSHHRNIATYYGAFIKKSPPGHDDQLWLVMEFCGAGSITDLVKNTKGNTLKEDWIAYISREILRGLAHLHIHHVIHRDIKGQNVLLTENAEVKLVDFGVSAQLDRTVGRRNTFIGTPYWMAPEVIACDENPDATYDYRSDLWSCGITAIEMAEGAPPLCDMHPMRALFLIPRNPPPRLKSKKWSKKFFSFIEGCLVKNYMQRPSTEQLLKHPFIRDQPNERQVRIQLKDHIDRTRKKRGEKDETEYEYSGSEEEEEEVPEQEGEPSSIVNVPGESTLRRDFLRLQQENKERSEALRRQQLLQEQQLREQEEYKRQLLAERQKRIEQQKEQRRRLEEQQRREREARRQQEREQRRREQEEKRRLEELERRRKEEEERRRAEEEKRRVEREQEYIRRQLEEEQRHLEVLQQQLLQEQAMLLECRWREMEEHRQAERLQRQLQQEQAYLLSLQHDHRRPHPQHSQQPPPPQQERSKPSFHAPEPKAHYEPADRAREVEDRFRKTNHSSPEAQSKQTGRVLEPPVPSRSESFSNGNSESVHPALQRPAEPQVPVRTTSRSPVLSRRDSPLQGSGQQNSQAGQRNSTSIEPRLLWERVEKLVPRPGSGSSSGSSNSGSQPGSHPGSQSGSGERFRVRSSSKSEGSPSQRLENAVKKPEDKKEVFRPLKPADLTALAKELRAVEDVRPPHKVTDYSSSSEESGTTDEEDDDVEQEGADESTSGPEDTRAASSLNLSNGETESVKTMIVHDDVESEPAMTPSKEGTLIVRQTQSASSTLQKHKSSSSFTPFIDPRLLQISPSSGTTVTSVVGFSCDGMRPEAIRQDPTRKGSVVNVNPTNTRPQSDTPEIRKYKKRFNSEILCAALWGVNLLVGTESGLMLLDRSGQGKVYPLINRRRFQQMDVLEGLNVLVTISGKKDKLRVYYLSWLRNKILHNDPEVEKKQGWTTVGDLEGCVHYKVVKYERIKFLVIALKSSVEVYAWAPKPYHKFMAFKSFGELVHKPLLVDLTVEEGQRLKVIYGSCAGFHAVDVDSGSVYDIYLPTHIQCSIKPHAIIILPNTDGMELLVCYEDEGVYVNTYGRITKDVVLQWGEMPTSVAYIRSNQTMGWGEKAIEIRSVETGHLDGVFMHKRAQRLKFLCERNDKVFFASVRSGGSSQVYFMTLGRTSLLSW

[3] = biological target: Insulin-like growth factor 1 receptor (Homo sapiens) (UniProt P08069); experiment: Inhibition of human IGF1R catalytic domain expressed in baculovirus assessed as substrate phosphorylation using fluorescence-labelled peptides as substrate at 95 uM after 90 mins by microfluidic peptide phosphorylation assay
[4] = biological target: Tyrosine-protein kinase Lyn (Homo sapiens) (UniProt P07948); experiment: Inhibition of human full length LYN expressed in baculovirus assessed as substrate phosphorylation using fluorescence-labelled peptides as substrate at 95 uM after 90 mins by microfluidic peptide phosphorylation assay
Chain of Tyrosine-protein kinase Lyn (Homo sapiens) (P07948 2-512 limits assumed): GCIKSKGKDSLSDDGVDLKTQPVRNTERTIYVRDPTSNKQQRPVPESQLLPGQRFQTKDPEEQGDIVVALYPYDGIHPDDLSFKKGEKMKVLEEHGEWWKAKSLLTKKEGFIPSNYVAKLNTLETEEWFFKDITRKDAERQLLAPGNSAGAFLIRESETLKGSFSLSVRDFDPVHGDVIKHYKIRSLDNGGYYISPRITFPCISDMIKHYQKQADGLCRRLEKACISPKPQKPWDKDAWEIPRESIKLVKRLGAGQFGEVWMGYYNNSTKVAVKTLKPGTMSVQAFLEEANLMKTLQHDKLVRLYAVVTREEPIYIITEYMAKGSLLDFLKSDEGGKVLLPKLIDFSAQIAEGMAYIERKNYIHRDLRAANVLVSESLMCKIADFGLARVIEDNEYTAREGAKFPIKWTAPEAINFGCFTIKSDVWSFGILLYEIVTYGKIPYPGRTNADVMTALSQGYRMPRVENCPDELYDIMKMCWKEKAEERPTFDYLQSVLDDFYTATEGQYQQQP

[5] = biological target: Protein kinase C delta type (Homo sapiens) (UniProt Q05655); experiment: Inhibition of human truncated PKC delta expressed in baculovirus assessed as substrate phosphorylation using fluorescence-labelled peptides as substrate at 0.2 uM after 90 mins by microfluidic peptide phosphorylation assay
[6] = biological target: T2, Serine/threonine-protein kinase Sgk1 (Homo sapiens) (UniProt O00141); experiment: Inhibition of human truncated SGK1 expressed in baculovirus assessed as substrate phosphorylation using fluorescence-labelled peptides as substrate at 0.2 uM after 90 mins by microfluidic peptide phosphorylation assay
T2 sequence (whole entry): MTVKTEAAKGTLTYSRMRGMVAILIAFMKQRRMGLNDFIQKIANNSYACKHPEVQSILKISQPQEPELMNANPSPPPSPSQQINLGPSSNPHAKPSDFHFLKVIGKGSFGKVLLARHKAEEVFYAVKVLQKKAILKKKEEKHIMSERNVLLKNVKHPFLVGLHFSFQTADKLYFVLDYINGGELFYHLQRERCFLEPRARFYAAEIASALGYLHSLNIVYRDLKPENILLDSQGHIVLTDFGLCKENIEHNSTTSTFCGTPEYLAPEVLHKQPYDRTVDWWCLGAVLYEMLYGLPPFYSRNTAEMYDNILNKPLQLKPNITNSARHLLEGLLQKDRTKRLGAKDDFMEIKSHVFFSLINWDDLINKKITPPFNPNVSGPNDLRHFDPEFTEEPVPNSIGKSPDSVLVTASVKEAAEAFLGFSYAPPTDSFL

[7] = biological target: T3, Serine/threonine-protein kinase Sgk3 (Homo sapiens) (UniProt Q96BR1); experiment: Inhibition of human full length SGK3 expressed in baculovirus assessed as substrate phosphorylation using fluorescence-labelled peptides as substrate at 2 uM after 90 mins by microfluidic peptide phosphorylation assay
T3 sequence (whole entry): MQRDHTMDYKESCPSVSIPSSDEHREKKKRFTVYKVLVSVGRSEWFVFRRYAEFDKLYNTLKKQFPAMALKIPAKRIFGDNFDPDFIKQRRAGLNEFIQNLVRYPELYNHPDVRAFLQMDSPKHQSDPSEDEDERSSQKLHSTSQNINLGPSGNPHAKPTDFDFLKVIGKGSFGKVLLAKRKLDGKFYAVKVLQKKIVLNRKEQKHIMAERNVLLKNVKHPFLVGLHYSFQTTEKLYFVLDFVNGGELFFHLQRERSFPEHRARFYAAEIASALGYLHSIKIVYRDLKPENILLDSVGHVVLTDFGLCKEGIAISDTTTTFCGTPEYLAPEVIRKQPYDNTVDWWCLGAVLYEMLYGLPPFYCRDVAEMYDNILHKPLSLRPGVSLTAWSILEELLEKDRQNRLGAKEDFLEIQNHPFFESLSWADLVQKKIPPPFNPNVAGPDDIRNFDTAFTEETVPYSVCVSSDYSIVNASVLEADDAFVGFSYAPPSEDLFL

[8] = biological target: Serine/threonine-protein kinase MARK2 (Homo sapiens) (UniProt Q7KZI7); experiment: Inhibition of human full length MARK2 expressed in baculovirus assessed as substrate phosphorylation using fluorescence-labelled peptides as substrate at 1000 uM after 90 mins by microfluidic peptide phosphorylation assay
Chain of Serine/threonine-protein kinase MARK2 (Homo sapiens) (Q7KZI7 whole entry, the tested form may be a part): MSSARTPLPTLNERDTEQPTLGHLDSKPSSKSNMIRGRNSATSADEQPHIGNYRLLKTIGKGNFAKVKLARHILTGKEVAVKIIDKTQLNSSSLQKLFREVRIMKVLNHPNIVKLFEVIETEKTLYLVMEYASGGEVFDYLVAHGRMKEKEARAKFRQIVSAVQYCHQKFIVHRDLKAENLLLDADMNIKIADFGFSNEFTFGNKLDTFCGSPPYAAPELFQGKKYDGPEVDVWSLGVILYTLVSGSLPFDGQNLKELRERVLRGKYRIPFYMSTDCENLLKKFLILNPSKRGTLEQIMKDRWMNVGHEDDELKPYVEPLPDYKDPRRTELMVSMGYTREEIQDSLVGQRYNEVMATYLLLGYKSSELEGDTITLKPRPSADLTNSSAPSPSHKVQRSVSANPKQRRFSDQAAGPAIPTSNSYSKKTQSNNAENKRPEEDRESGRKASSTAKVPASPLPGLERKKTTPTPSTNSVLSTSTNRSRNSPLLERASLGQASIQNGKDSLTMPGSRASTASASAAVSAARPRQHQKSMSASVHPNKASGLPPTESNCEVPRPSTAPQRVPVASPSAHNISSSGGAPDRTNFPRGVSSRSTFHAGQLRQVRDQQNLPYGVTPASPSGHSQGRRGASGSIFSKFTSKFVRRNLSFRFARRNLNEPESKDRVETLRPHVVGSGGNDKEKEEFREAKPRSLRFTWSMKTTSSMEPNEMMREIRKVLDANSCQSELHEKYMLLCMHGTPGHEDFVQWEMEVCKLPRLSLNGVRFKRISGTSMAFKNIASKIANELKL

[9] = biological target: Fibroblast growth factor receptor 1 (Homo sapiens) (UniProt P11362); experiment: Inhibition of human FGFR1 catalytic domain expressed in baculovirus assessed as substrate phosphorylation using fluorescence-labelled peptides as substrate at 0.1 uM after 90 mins by microfluidic peptide phosphorylation assay
Chain of Fibroblast growth factor receptor 1 (Homo sapiens) (P11362 22-822 limits assumed): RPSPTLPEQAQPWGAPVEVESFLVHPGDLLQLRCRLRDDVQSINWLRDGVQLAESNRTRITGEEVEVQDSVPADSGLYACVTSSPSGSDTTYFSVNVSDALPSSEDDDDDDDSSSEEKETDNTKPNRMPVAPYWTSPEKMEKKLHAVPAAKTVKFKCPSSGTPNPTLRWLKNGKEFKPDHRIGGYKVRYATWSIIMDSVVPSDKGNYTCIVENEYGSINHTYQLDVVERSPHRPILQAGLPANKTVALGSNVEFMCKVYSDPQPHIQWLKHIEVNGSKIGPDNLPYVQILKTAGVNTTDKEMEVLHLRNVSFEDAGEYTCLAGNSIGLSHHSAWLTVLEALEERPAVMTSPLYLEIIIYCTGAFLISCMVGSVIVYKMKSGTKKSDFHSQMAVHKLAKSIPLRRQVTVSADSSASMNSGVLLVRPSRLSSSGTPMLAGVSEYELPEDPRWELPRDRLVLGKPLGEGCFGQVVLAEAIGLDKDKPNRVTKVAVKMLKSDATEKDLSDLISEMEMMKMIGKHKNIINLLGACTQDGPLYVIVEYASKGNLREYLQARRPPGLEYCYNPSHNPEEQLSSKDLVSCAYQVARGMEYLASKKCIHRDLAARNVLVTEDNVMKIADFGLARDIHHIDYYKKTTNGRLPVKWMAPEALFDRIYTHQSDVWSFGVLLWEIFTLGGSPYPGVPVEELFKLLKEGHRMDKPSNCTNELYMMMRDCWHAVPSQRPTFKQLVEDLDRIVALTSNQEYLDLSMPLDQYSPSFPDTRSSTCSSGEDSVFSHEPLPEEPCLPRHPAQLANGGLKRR

[10] = biological target: Tyrosine-protein kinase ABL1 (Homo sapiens) (UniProt P00519); experiment: Inhibition of human full-length ABL expressed in baculovirus assessed as substrate phosphorylation using fluorescence-labelled peptides as substrate at 70 uM after 90 mins by microfluidic peptide phosphorylation assay
Chain of Tyrosine-protein kinase ABL1 (Homo sapiens) (P00519 whole entry): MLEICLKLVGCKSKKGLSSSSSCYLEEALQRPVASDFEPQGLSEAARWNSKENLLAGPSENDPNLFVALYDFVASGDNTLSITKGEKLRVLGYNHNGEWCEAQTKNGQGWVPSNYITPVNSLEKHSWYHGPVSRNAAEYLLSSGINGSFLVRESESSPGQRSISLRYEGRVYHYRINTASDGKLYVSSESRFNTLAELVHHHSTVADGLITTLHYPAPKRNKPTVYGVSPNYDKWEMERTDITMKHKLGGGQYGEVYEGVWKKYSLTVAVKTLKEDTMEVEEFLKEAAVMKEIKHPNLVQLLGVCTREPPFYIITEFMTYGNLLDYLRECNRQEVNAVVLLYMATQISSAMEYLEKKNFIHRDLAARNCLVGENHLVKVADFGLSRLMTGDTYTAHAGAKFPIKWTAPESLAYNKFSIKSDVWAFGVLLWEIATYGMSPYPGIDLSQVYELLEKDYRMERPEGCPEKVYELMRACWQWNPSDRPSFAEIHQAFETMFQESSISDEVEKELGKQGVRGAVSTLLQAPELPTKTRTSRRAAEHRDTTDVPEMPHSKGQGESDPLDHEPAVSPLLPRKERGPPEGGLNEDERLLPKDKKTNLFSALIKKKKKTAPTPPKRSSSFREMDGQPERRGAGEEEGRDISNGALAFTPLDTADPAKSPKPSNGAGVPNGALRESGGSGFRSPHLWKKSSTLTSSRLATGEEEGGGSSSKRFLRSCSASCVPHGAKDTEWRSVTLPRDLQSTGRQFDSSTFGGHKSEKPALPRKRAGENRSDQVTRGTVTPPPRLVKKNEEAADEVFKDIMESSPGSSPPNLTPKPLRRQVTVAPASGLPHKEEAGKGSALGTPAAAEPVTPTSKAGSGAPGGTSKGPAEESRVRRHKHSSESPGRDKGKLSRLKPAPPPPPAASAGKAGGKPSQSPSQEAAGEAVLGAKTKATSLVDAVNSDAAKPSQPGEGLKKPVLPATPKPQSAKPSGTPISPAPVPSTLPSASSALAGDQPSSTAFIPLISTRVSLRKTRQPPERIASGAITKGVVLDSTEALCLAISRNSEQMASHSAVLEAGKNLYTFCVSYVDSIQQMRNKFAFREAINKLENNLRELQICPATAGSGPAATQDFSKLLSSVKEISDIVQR

Work on `NCCc1ccc(-c2ncnc3[nH]cnc23)cc1` yielded an inhibition [1] of 0%, an inhibition [2] of 39.5% and an inhibition [3] of 20.5%. For the same compound, the inhibition [4] was 65.5%.

With `Clc1ccc(C2(c3ccc(-c4ncnc5[nH]cnc45)cc3)CCNCC2)cc1` the inhibition [5] was 37.5% and the inhibition [6] was 33%.

Work on `NC1CCN(c2ncnc3[nH]ccc23)CC1` yielded an inhibition [7] of 34.5%.

`c1cnc2[nH]ccc2c1` gave an inhibition [8] of 75%.

For `C[C@H](CN(C)C)Oc1nc(Nc2cc3cccc(Cl)c3cn2)cnc1C#N`, the inhibition [9] was 2.5%.

Compound `CNCc1ccc(-c2ncnc3[nH]cnc23)cc1` has an inhibition [10] of 47.5%.
